In patent US20160279236A1, “USE OF RAPAMYCIN AS VACCINE ADJUVANT AND PREPARATION METHOD THEREFOR” (INSTITUT PASTEUR OF SHANGHAI, CHINESE ACADEMY OF SCIENCES, priority 2013, published 2016):

Experiments:
[1] = system: melanoma murine cell line B16 OVA; experiment: Tumor growth of B16 OVA melanoma in mice immunized with ovalbumin plus adjuvants; format: in vivo; settings: ovalbumin 10 μg/mouse i.p. prime and boost; polyI:C 50 μg, rapamycin 100 μg, MPL 10 μg per mouse; B16 OVA 1×10^6 cells s.c. 4 weeks after secondary immunization
Experimental: By intraperitoneal injecting, 6-8 weeks aged mice were immunized using ovalbumin (10 μg/mouse) as antigen and PBS (200 μl, negative control), polyI:C (Invivogen) (50 μg/mouse), rapamycin (100 μg/mouse), MPL (10 μg/mouse), MPL (10 μg/mouse)+rapamycin (100 μg/mouse), polyI:C (50 μg/mouse)+rapamycin (100 μg/mouse) used as adjuvant to conduct primary immunization. After two weeks, the mice were boosted by the same program. 4 weeks after the secondary immunization, melanoma murine cell line B16 OVA expressing OVA was subcutaneous implanted into mice (1×10^6 cells/mouse), and the tumor growth was measured.

[2] = system: OVA-specific T cell responses and antibody responses; experiment: Ovalbumin immunization of mice with adjuvants: OVA-specific T cell and antibody responses; format: in vivo
Experimental: 6-8 weeks aged mice were primarily immunized by the inventors using intraperitoneal injection method, wherein Ovalbumin (10 μg/mouse) was used as antigen and PBS (negative control), MPL (10 μg/mouse, positive control), rapamycin (100 μg/mouse), rapamycin (100 μg/mouse)+MPL (10 μg/mouse) as adjuvant respectively, and were immunized again with ovalbumin (10 μg/mouse, without adjuvant) at 3 weeks. […] After 48 hours, enzyme linked immunosorbent assay (ELISA) was used to determine the content of IFNγ in the supernatant.

[3] = blood 1 week after secondary immunization, single adjuvants vs negative control, combination vs MPL alone

Substance	tumor growth [1]	OVA-specific IgG1 antibody titers [2, 3]	OVA-specific IgG2b antibody titers [2, 3]	OVA-specific IgG2c antibody titers [2, 3]	OVA-specific CD8+ T cell responses ([2]; mice i.p., ovalbumin 10 μg, MPL 10 μg, rapamycin 100 μg per mouse, IFNγ ELISA of splenic cells stimulated with OVA-1, 48 hours)	OVA-specific CD4+ (Th1) T cell responses ([2]; mice i.p., ovalbumin 10 μg, MPL 10 μg, rapamycin 100 μg per mouse, IFNγ ELISA of splenic cells stimulated with OVA-II, 48 hours)
polyI:C	grew slowly and was of relatively small volume	–	–	–	–	–
monophosphoryl lipid A [MPL]	–	significantly increase	significantly increase	significantly increase	significantly increase	significantly increase
